Source: PMC12176268, “Structural Features and Photophysical and Antiproliferative Properties of Me2N‑pbt-Cycloplatinated Complexes with Picolinate Ligands” (Inorganic Chemistry, 2025)

Columns and labels:
MDA-MB-231 cells = test: Intracellular ROS production with H2DCFDA probe; assay type: cell-based, human
Experimental: Cyclometalated complexes of various metals, including Ir(III), Rh(III), Pt(II), and Au(III), have been reported to induce overproduction of reactive oxygen species (ROS), inducing oxidative stress leading to cell death. […] Following the protocol used for cytotoxicity assays, cells were incubated with 3 for 4 h in the dark at 37 °C (dark conditions) or incubated with 3 for 4 h in the dark at 37 °C, followed by 5 min of irradiation at 450 nm (irradiation conditions). ROS production was measured using the nonspecific ROS probe 2′,7′-dichlorodihydrofluorescein diacetate (H2DCFDA) (Figures and S36).
11 ROS production upon incubation of MDA-MB-231 cells for 4 h at 37 °C (dark) or for 4 h at 37 °C + 5 min irradiation at 450 nm (irradiation) with complex 3 (5, 2, 1, or 0.5 μM), expressed as the mean fluorescence intensity normalized to DMSO negative controls. […]
Triple-negative breast cancer cells MDA-MB-231 were seeded in 6-well plates at a concentration of 150 000 cells/well in 1.5 mL DMEM (Dulbecco’s modified Eagle’s medium) containing GlutaMax I supplemented with 10% FBS. […] Microscopy images were recorded in brightfield and GFP filter modes using an EVOS M5000 microscope with a 10× objective. Cell confluency was assessed on the brightfield images using EVOS M5000 microscope software, and quantification of green fluorescence was performed using Fiji software. […]

[1] = biological target: bovine serum albumin (BSA) (Bos taurus, UniProt P02769); test: Quenching of intrinsic BSA fluorescence (Stern–Volmer, binding constant); conditions: 5 μM BSA, 20 mM PB pH 7.4, 1% DMSO, 1 h room temperature
Experimental: In order to further characterize the interactions between complex 3 and BSA, we monitored the evolution of the intrinsic emission band of BSA upon excitation at 290 nm, attributed to the Trp213 residue located in the hydrophobic domain IIA, in the presence of an increasing concentration of complex 3. Briefly, the emission spectra of solutions containing 5 μM BSA dissolved in 20 mM PB buffer (pH 7.4) containing 1% DMSO incubated for 1 h at room temperature with concentrations of 3 ranging from 1 to 100 μM (Figure S33A) were recorded. […] The kinetics of the intermolecular quenching processes follow the Stern–Volmer eq : 2 F0/F=1+Ksv[3] where F 0 is the fluorescence intensity of pure BSA, F is the fluorescence intensity after the addition of 3, and K SV is the Stern–Volmer dynamic quenching efficiency (Figure S33B). K SV (eq ) can be expressed as the product of the quenching rate k q and the average lifetime of the fluorophore τ0 in the excited state, which is typically 10^–8 s. 3 KSV=kqτ0
The linear Stern–Volmer plot can be indicative of either a dynamic or static quenching mechanism.
It is further possible to determine the number of binding sites (n) and the binding constant (Kb) by plotting log((F0-F)/F) vs log([3]) (Figure S33C) according to eq . 4 log(F0−F/F)=logKb+nlog[3] […]

bovine serum albumin (BSA), sequence (P02769 25-607): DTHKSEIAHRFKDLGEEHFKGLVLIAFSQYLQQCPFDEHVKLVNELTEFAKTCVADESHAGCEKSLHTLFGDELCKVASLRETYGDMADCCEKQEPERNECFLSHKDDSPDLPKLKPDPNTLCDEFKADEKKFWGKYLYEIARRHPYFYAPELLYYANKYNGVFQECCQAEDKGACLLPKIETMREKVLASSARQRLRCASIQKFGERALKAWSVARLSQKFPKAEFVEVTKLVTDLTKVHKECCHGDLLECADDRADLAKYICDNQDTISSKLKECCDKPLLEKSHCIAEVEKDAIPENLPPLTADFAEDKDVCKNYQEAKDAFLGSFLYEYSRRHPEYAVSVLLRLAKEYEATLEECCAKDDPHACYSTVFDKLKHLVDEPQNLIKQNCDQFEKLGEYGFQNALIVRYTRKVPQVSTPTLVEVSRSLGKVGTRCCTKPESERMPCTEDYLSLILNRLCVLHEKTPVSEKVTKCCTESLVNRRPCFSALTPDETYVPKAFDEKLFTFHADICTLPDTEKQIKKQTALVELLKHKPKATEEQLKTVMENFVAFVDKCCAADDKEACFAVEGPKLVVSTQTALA

[Pt(Me2N-pbt)(3-OH-pic-κN,O)] [Complex 3]
ROS production (H2DCFDA green fluorescence), dark (MDA-MB-231 cells; MDA-MB-231, 0.5, 1, 2 or 5 μM, 4 h at 37 °C in the dark): dose-dependent increase of green fluorescence
ROS production (H2DCFDA green fluorescence), irradiation versus dark (MDA-MB-231 cells; MDA-MB-231, 4 h at 37 °C + 5 min irradiation at 450 nm): statistically significant increase of ROS production
number of binding sites (n) on BSA [1]: 0.9 ± 0.07
quenching rate kq of BSA fluorescence ([1]; λexc 290 nm, τ0 10^–8 s): 2.21 ± 0.12 × 10^12 M^–1.s^–1
